# Assay results reported in US5284834A, “Adenosine functionalized congeners as cardiovascular treating agents for animals and methods for using same” (priority 1992, dated 1994).
# Entries after “also recorded” stand apart in the source; their conditions may differ.
# Legend:
# [1] = target: T1, Brain A1-adenosine receptor (Rattus norvegicus, UniProt P25099); assay: A1-binding assay: antagonism of binding of 1nM [3H]N6-cyclohexyladenosine to rat cerebral cortical membranes; conditions: molar potency ratio derived from Ki values; rat cerebral cortical membranes
# T1 construct: -cyclohexyladenosine to rat cerebral cortical membranes; from tissue; host or cells: rat cerebral cortical membranes
# T1 sequence (P25099 1-326): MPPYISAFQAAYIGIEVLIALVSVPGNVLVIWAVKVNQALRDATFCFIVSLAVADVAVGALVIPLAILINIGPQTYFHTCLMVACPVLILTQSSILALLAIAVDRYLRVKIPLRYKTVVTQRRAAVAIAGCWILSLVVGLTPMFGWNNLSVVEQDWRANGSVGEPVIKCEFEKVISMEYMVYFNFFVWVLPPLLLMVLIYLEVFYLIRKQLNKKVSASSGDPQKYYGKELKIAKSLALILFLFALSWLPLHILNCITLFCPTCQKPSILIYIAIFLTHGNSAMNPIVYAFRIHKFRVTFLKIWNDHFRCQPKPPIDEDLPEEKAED
# Excerpt: (§1) In the present invention there is compared the A1 - and A2 -potencies of a series of long-chain derivatives of adenosine suitable for attachment to "carriers," such as peptides or proteins, and for immobilization to polymeric matrices for affinity chromatography of adenosine receptors. The method employed is a comparison of increasing coronary blood flow via activation of an A2 -adenosine receptor versus an A1 -binding assay in rat brain.
# ^b Molar potency ratio relative to adenosine, derived from Ki
# values for antagonism of binding of 1nM [^3 H]N^6
# -cyclohexyladenosine to rat cerebral cortical membranes.
# (§2) The potencies at A2 -receptors (Table 1) are expressed as a molar potency ratio of the EC50 value of adenosine divided by that of the adenosine analogue. A common reference compound on which to base molar potency ratios was needed to facilitate comparison of activities at A1 and A2 receptors. Adenosine itself cannot be used as a reference in the A1 binding assay since treatment of the membranes with adenosine deaminase is essential. […] Thus, MeAdo was used as a suitable reference compound.
# Water solubility = format: physicochemical
# [2] = target: T2, Coronary A2-Adenosine Receptor (Canis lupus familiaris, UniProt P11617); assay: Coronary vasoactivity in the anesthetized, open-chest dog (intracoronary infusion; MPR from EC50); format: in vivo
# T2 construct: The assay of coronary vasoactivity in the anesthetized, open-chest dog; from tissue; host or cells: coronary vessels in situ, anesthetized open-chest dog
# T2 sequence (P11617 whole entry, the tested form may be a part): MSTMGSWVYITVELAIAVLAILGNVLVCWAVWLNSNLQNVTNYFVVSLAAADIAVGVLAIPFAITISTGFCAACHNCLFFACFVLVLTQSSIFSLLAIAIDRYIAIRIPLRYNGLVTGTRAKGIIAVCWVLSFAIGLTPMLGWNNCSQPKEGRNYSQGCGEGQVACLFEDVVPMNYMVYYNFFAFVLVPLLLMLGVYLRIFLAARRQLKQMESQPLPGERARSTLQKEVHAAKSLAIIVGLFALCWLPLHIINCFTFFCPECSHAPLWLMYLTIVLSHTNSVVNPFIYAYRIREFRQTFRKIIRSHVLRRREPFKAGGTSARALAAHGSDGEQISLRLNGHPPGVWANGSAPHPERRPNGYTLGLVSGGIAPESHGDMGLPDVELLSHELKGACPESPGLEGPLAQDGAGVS
# Excerpt: as §1, §2
# The assay of coronary vasoactivity in the anesthetized, open-chest dog, is described by Kusachi et al, J. Med. Chem., in press, and Olsson, et al, J. Circ. […] The assay estimates an EC-50, the concentration of analogue which produces a half maximum change in coronary conductance (reciprocal resistance). To reduce between-animal variability activity is expressed as a molar potency ratio (MPR) the value of the EC-50 of adenosine divided by that of the analogue. Owing to the low water solubility of some of the analogues, solutions for intracoronary infusion were prepared by diluting stock solutions in dimethyl sulfoxide. In such instances, solutions of adenosine used to establish a standard of potency also contained dimethyl sulfoxide. […]
# [3] = target: T3, A2-adenosine receptor (adenylate cyclase, human platelet membranes) (Homo sapiens, UniProt P29274); assay: Stimulation of adenylate cyclase in human platelet membranes; format: biochemical; conditions: human platelet membranes; read-out: IC50 (printed lC50), stimulation of adenylate cyclase
# T3 construct: stimulation of adenylate cyclase in human platelet membranes; from tissue; host or cells: human platelet membranes
# T3 sequence (P29274 whole entry): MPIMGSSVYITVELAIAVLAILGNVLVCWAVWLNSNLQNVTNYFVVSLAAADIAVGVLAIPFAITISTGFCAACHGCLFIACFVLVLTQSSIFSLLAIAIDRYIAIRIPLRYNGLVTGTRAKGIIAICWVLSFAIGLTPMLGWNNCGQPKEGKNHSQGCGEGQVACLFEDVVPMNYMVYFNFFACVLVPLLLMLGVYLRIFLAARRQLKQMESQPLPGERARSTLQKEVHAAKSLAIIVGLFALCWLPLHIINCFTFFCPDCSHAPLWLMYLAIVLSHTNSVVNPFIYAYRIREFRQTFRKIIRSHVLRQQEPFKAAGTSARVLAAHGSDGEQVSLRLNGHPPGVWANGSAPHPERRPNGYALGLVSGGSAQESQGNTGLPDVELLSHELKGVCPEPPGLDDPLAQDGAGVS
structure (smiles),measurement,setting,value
O=C(CCCC[C@@H]1SC[C@@H]2NC(=O)N[C@@H]21)NCCCCCC(=O)NCCNC(=O)Cc1ccc(NC(=O)Cc2ccc(Nc3ncnc4c3ncn4[C@@H]3O[C@H](CO)[C@@H](O)[C@H]3O)cc2)cc1 [Compound 19],A1 Receptor MPR Relative to MeAdo,[1],3.3
same,water solubility (in words),Water solubility,practically insoluble in water
same,Onset of Action,"[2]; coronary vasodilation, intracoronary infusion",20 to 30 s
same,A2 versus A1 receptor selectivity (in words),[2]; dog coronary A2 versus rat brain A1,highly divergent at A1 and A2 receptors
same,Duration of Vasodilation,[2]; intracoronary infusion,> 1 h
same,duration of vasodilation (in words),[2]; intracoronary infusion,often lasted for an hour or more
same,coronary vasoactivity (in words),"[2]; intracoronary infusion, dog",most active analogue; also recorded: three most active analogues
same,A2 Receptor MPR Relative to Ado,"[2]; molar potency ratio: EC50 of adenosine divided by that of the analogue, coronary, dog",10.2 ± 7.3
same,A2/A1 potency ratio (MPR(A2)/MPR(A1)),[2]; ratio of MPR (MeAdo) at dog coronary A2 receptor to MPR at rat brain A1 receptor,61
same,IC50,[3],2400 nM
